Test results: US8420657B2 (Novartis AG, priority 2008, dated 2013)

Legend:
GST-JAK2(808-1132) = molecular target: T1, GST-JAK2(808-1132) (Homo sapiens, UniProt O60674); test: JAK2 kinase assay (Caliper mobility shift, LabChip 3000); assay type: biochemical
T1 construct: GST-JAK2(808-1132); purchased Invitrogen (Carlsbad, USA) #4288
Summary of the method: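 Eight-point compound series (final 10–0.003 μM) tested on purchased GST-JAK2 kinase domain (808-1132). Peptide FITC-JAK3tide plus ATP reacted 60 min, 30 °C, then quenched with EDTA; turnover from charge-based separation of substrate and product.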

[1] = test system: JAK1/JAK2-dependent nuclear translocation of STAT1-GFP in HT1080 fibrosarcoma cells; test: STAT1 nuclear translocation assay (Cellomics), IFN-γ stimulated HT1080 STAT1-GFP cells; assay type: cell-based; details: Homo sapiens, HT-1080, STAT1 translocation pathway
Summary of the method: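 IC50 derived from percent nuclear STAT1-GFP translocation, computed from nuclear minus cytoplasmic GFP intensity against untreated baseline and DMSO-stimulated control. Stable HT1080 STAT1-GFP cells received compound (0.003–10 μM, 0.1% DMSO) 30 min ahead of a 2 h 100 ng/ml IFN-γ stimulus, then fixation and Hoechst nuclear masking.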

T1 sequence (O60674 808-1132): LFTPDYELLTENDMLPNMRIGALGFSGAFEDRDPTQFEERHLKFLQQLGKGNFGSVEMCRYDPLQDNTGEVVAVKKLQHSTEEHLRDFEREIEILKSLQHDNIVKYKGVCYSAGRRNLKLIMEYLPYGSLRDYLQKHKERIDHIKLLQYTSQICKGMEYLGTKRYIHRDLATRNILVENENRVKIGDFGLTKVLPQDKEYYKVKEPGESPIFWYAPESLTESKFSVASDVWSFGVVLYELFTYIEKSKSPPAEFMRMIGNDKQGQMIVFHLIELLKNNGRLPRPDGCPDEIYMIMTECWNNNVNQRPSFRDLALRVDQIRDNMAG

| Compound | IC50 (GST-JAK2(808-1132)) [nM] | IC50 [1] [nM] |
| --- | --- | --- |
| CN1CCN(c2ccc(Nc3ncc4ccn(-c5cc(F)c(C(=O)N6CCOCC6)c(F)c5)c4n3)cn2)CC1 [Example 221] | 4.7 | 360 |
| Cc1ccc(Nc2ncc3ccn(-c4ccc(C(=O)N5CCOCC5)c(F)c4)c3n2)cn1 [Example 223] | 9.2 | 455 |
| O=C(c1ccc(-n2ccc3cnc(Nc4cccnc4)nc32)cc1F)N1CCOCC1 [Example 224, {2-Fluoro-4-[2-(pyridin-3-ylamino)-pyrrolo[2,3-d]pyrimidin-7-yl]-phenyl}-morpholin-4-yl-methanone] | 8.5 | 1080 |
| COc1ccc(Nc2ncc3ccn(-c4ccc(C(=O)N5CCOCC5)c(F)c4)c3n2)cn1 [Example 225, {2-Fluoro-4-[2-(6-methoxy-pyridin-3-ylamino)-pyrrolo[2,3-d]pyrimidin-7-yl]-phenyl}-morpholin-4-yl-methanone] | 7.4 | 434 |
| CC(C)Oc1ccc(Nc2ncc3ccn(-c4ccc(C(=O)N5CCOCC5)c(F)c4)c3n2)cn1 [Example 226, {2-Fluoro-4-[2-(6-isopropoxy-pyridin-3-ylamino)-pyrrolo[2,3-d]pyrimidin-7-yl]-phenyl}-morpholin-4-yl-methanone] | 10.5 | 666 |
| Cc1ccc(Nc2ncc3ccn(-c4ccc(S(C)(=O)=O)cc4)c3n2)cn1 [Example 229, [7-(4-Methanesulfonyl-phenyl)-7H-pyrrolo[2,3-d]pyrimidin-2-yl]-(6-methyl-pyridin-3-yl)-amine] | 21 | 1580 |
| COc1ccc(Nc2ncc3ccn(-c4ccc(S(C)(=O)=O)cc4)c3n2)cn1 [Example 230, [7-(4-Methanesulfonyl-phenyl)-7H-pyrrolo[2,3-d]pyrimidin-2-yl]-(6-methoxy-pyridin-3-yl)-amine] | 20.5 | 2480 |
| CC(C)Oc1ccc(Nc2ncc3ccn(-c4ccc(C(=O)N5CCOCC5)cc4)c3n2)cc1 [Example 231, {4-[2-(4-Isopropoxy-phenylamino)-pyrrolo[2,3-d]pyrimidin-7-yl]-phenyl}-morpholin-4-yl-methanone] | 3.2 | 258 |
| CC(C)Oc1ccc(Nc2ncc3ccn(-c4ccc(C(=O)N5CCOCC5)cc4)c3n2)cn1 [Example 232] | 19 | 1160 |
| Cc1ccc(Nc2ncc3ccn(-c4ccc(C(=O)N5CCOCC5)cc4)c3n2)cc1F [Example 233, {4-[2-(3-Fluoro-4-methyl-phenylamino)-pyrrolo[2,3-d]pyrimidin-7-yl]-phenyl}-morpholin-4-yl-methanone] | 6.4 | 1180 |
| COc1ccc(Nc2ncc3ccn(-c4ccc(C(=O)N5CCOCC5)cc4)c3n2)cn1 [Example 234, {4-[2-(6-Methoxy-pyridin-3-ylamino)-pyrrolo[2,3-d]pyrimidin-7-yl]-phenyl}-morpholin-4-yl-methanone] | 8.1 | 910 |
| N#Cc1ccc(Nc2ncc3ccn(-c4ccc(C(=O)N5CCOCC5)cc4)c3n2)cc1 [Example 237, 4-{7-[4-(Morpholine-4-carbonyl)-phenyl]-7H-pyrrolo[2,3-d]pyrimidin-2-ylamino}-benzonitrile] | 7 | 2560 |
| COCc1ccc(Nc2ncc3ccn(-c4ccc(C(=O)N5CCOCC5)cc4)c3n2)cc1 [Example 239, {4-[2-(4-Methoxymethyl-phenylamino)-pyrrolo[2,3-d]pyrimidin-7-yl]-phenyl}-morpholin-4-yl-methanone] | 3.9 | 660 |
| COc1cc(Nc2ncc3ccn(-c4ccc(C(=O)N5CCOCC5)cc4)c3n2)ccc1C [Example 240, {4-[2-(3-Methoxy-4-methyl-phenylamino)-pyrrolo[2,3-d]pyrimidin-7-yl]-phenyl}-morpholin-4-yl-methanone] | 5.2 | 730 |
| Cn1cc(Nc2ncc3ccn(-c4cc(F)c(C(=O)N5CCOCC5)c(F)c4)c3n2)cn1 [Example 241, {2,6-Difluoro-4-[2-(1-methyl-1H-pyrazol-4-ylamino)-pyrrolo[2,3-d]pyrimidin-7-yl]-phenyl}-morpholin-4-yl-methanone] | 5.4 | 370 |
| Cc1cncc(Nc2ncc3ccn(-c4cc(F)c(C(=O)N5CCOCC5)c(F)c4)c3n2)c1 [Example 242, {2,6-Difluoro-4-[2-(5-methyl-pyridin-3-ylamino)-pyrrolo[2,3-d]pyrimidin-7-yl]-phenyl}-morpholin-4-yl-methanone] | 4.3 | 355 |

| Compound | IC50 (GST-JAK2(808-1132)) [nM] | IC50 [1] [nM] |
| --- | --- | --- |
| CN1CCN(c2cc(Nc3ncc4ccn(-c5cc(F)c(C(=O)N6CCOCC6)c(F)c5)c4n3)ccn2)CC1 [Example 243, (2,6-Difluoro-4-{2-[2-(4-methyl-piperazin-1-yl)-pyridin-4-ylamino]-pyrrolo[2,3-d]pyrimidin-7-yl}-phenyl)-morpholin-4-yl-methanone] | < 3 | 225 |
| CN1CCN(Cc2ccc(Nc3ncc4ccn(-c5ccc(S(C)(=O)=O)c(F)c5)c4n3)cc2)CC1 [Example 244, [7-(3-Fluoro-4-methanesulfonyl-phenyl)-7H-pyrrolo[2,3-d]pyrimidin-2-yl]-[4-(4-methyl-piperazin-1-ylmethyl)-phenyl]-amine] | < 3 | 430 |
| CN1CCN(Cc2cccc(Nc3ncc4ccn(-c5cc(F)c(C(=O)N6CCOCC6)c(F)c5)c4n3)c2)CC1 [Example 245, (2,6-Difluoro-4-{2-[3-(4-methyl-piperazin-1-ylmethyl)-phenylamino]-pyrrolo[2,3-d]pyrimidin-7-yl}-phenyl)-morpholin-4-yl-methanone] | < 3 | 430 |
| O=C(c1c(F)cc(-n2ccc3cnc(Nc4nccs4)nc32)cc1F)N1CCOCC1 [Example 246, {2,6-Difluoro-4-[2-(thiazol-2-ylamino)-pyrrolo[2,3-d]pyrimidin-7-yl]-phenyl}-morpholin-4-yl-methanone] | 28 | 4000 |
| Cn1cc(Nc2ncc3ccn(-c4cc(F)c(CN5CCOCC5)c(F)c4)c3n2)cn1 [Example 247, [7-(3,5-Difluoro-4-morpholin-4-ylmethyl-phenyl)-7H-pyrrolo[2,3-d]pyrimidin-2-yl]-(1-methyl-1H-pyrazol-4-yl)-amine] | 3.7 | 255 |
| O=C(c1cncc(Nc2ncc3ccn(-c4cc(F)c(CN5CCOCC5)c(F)c4)c3n2)c1)N1CCOCC1 [Example 248, {5-[7-(3,5-Difluoro-4-morpholin-4-ylmethyl-phenyl)-7H-pyrrolo[2,3-d]pyrimidin-2-ylamino]-pyridin-3-yl}-morpholin-4-yl-methanone] | 24 | 4270 |
| Cc1ccc(Nc2ncc3ccn(-c4ccc(C(=O)N5CCS(=O)(=O)CC5)cc4)c3n2)cn1 [Example 249, (1,1-Dioxido-thiomorpholin-4-yl)-{4-[2-(6-methyl-pyridin-3-ylamino)-pyrrolo[2,3-d]pyrimidin-7-yl]-phenyl}-methanone] | 4.3 | 815 |
| COc1ccc(Nc2ncc3ccn(-c4ccc(C(=O)N5CCS(=O)(=O)CC5)cc4)c3n2)cn1 [Example 250, (1,1-Dioxido-thiomorpholin-4-yl)-{4-[2-(6-methoxy-pyridin-3-ylamino)-pyrrolo[2,3-d]pyrimidin-7-yl]-phenyl}-methanone] | 9.1 | 940 |
| COCCn1cc(Nc2ncc3ccn(-c4cc(F)c(C(=O)N5CCOCC5)c(F)c4)c3n2)cn1 [Example 251, (2,6-Difluoro-4-{2-[1-(2-methoxy-ethyl)-1H-pyrazol-4-ylamino]-pyrrolo[2,3-d]pyrimidin-7-yl}-phenyl)-morpholin-4-yl-methanone] | 6.1 | 450 |
| COCCn1cc(Nc2ncc3ccn(-c4cc(F)c(CN5CCOCC5)c(F)c4)c3n2)cn1 [Example 252, [7-(3,5-Difluoro-4-morpholin-4-ylmethyl-phenyl)-7H-pyrrolo[2,3-d]pyrimidin-2-yl]-[1-(2-methoxy-ethyl)-1H-pyrazol-4-yl]-amine] | 3.3 | 340 |
| Cn1cc(Nc2ncc3ccn(-c4ccc(C(=O)N5CCOCC5)cc4)c3n2)cn1 [Example 253, {4-[2-(1-Methyl-1H-pyrazol-4-ylamino)-pyrrolo[2,3-d]pyrimidin-7-yl]-phenyl}-morpholin-4-yl-methanone] | 7.1 | 130 |
| C[C@@H]1CN(Cc2ccc(Nc3ncc4ccn(-c5cc(F)c(C(=O)N6CCOCC6)c(F)c5)c4n3)cc2)C[C@H](C)N1 [Example 255, (4-{2-[4-(cis-3,5-Dimethyl-piperazin-1-ylmethyl)-phenylamino]-pyrrolo[2,3-d]pyrimidin-7-yl}-2,6-difluoro-phenyl)-morpholin-4-yl-methanone] | 6.9 | 115 |
| Fc1cc(-n2ccc3cnc(Nc4ccc(CN5CCNC6(CC6)C5)cc4)nc32)cc(F)c1CN1CCOCC1 [Example 256] | < 3 | 115 |
| O=C(c1c(F)cc(-n2ccc3cnc(Nc4ccc(CN5CCNC6(CC6)C5)cc4)nc32)cc1F)N1CCOCC1 [Example 257] | 10 | 150 |
| O=C1CN(Cc2ccc(Nc3ncc4ccn(-c5cc(F)c(CN6CCOCC6)c(F)c5)c4n3)cc2)CCN1 [Example 258, 4-{4-[7-(3,5-Difluoro-4-morpholin-4-ylmethyl-phenyl)-7H-pyrrolo[2,3-d]pyrimidin-2-ylamino]-benzyl}-piperazin-2-one] | < 3 | 80 |
| O=C1CN(Cc2ccc(Nc3ncc4ccn(-c5cc(F)c(C(=O)N6CCOCC6)c(F)c5)c4n3)cc2)CCN1 [Example 259, 4-(4-{7-[3,5-Difluoro-4-(morpholine-4-carbonyl)-phenyl]-7H-pyrrolo[2,3-d]pyrimidin-2-ylamino}-benzyl)-piperazin-2-one] | < 3 | 80 |
